# According to article PMC10504751, “Chalcone/1,3,4-Oxadiazole/Benzimidazole hybrids as novel anti-proliferative agents inducing apoptosis and inhibiting EGFR & BRAFV^600E” (BMC Chemistry, 2023):
# Read-outs that look alike come from different tables or passages of the source.
# Experiments:
# Test in all cases: NCI one-dose SRB anti-proliferative screen
# Format in all cases: cell-based
# Details in all cases: Homo sapiens, read-out: Cell growth inhibition %
# UO-31 = test system: UO-31
# Method in brief: (§1)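 Using a fixed 10 µM dose, anti-proliferative activity is measured through sulforhodamine B binding, read colorimetrically, in one of sixty human tumour lines.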
# CAKI-1 = test system: CAKI-1
# Method in brief: as §1
# RPMI-8226 = test system: RPMI-8226
# Method in brief: as §1
# NCI-H460 = test system: NCI-H460
# Method in brief: as §1
# BT-549 = test system: BT-549
# Method in brief: as §1
# SNB-19 = test system: SNB-19
# Method in brief: as §1
# HOP-92 = test system: HOP-92
# Method in brief: as §1
# SK-MEL-28 = test system: SK-MEL-28
# Method in brief: as §1
# COLO 205 = test system: COLO 205
# Method in brief: as §1
# MALME-3M = test system: MALME-3M
# Method in brief: as §1
# SK-MEL-2 = test system: SK-MEL-2
# Method in brief: as §1
# M14 = test system: M14
# Method in brief: as §1
# SF-295 = test system: SF-295
# Method in brief: as §1
# SNB-75 = test system: SNB-75
# Method in brief: as §1
# MDA-MB-435 = test system: MDA-MB-435
# Method in brief: as §1
# SK-MEL-5 = test system: SK-MEL-5
# Method in brief: as §1
# SR = test system: SR
# Method in brief: as §1
# MDA-MB-231/ATCC = test system: MDA-MB-231/ATCC
# Method in brief: as §1
# SN12C = test system: SN12C
# Method in brief: as §1
# HOP-62 = test system: HOP-62
# Method in brief: as §1
# NCI/ADR-RES = test system: NCI/ADR-RES
# Method in brief: as §1
smiles,measurement,setting,value
"COc1ccc(-c2nc3cc(-c4nnc(SCC(=O)Nc5ccc(C(=O)/C=C/c6cc(OC)c(OC)c(OC)c6)cc5)o4)ccc3[nH]2)cc1 [Compound 7o, 2-{5-[2-(4-Methoxyphenyl)-1 H-benzo[d]imidazol-5-yl]-1,3,4-oxadiazol-2-ylthio}-N-{4-[(E)-3-(3,4,5-trimethoxyphenyl)acryloyl]phenyl}acetamide]",inhibition at 10 µM,"UO-31; UO-31, Renal cancer, NCI one dose",12.2%
same,inhibition at 10 µM,"CAKI-1; CAKI-1, Renal cancer, NCI one dose",1.83%
same,inhibition at 10 µM,"RPMI-8226; RPMI-8226, Leukemia, NCI one dose",23.2%
same,inhibition at 10 µM,"NCI-H460; NCI-H460, Non-Small Cell Lung Cancer, NCI one dose",0%
same,inhibition at 10 µM,"BT-549; BT-549, Breast cancer, NCI one dose",0%
same,inhibition at 10 µM,"SNB-19; SNB-19, CNS Cancer, NCI one dose",0%
same,inhibition at 10 µM,"HOP-92; HOP-92, Non-Small Cell Lung Cancer, NCI one dose",0%
same,inhibition at 10 µM,"SK-MEL-28; SK-MEL-28, Melanoma, NCI one dose",0%
same,inhibition at 10 µM,"COLO 205; COLO 205, Colon cancer, NCI one dose",0%
same,inhibition at 10 µM,"MALME-3M; MALME-3M, Melanoma, NCI one dose",3.93%
same,inhibition at 10 µM,"SK-MEL-2; SK-MEL-2, Melanoma, NCI one dose",0%
same,inhibition at 10 µM,"M14; M14, Melanoma, NCI one dose",0%
same,inhibition at 10 µM,"SF-295; SF-295, CNS Cancer, NCI one dose",0%
same,inhibition at 10 µM,"SNB-75; SNB-75, CNS Cancer, NCI one dose",1.75%
same,inhibition at 10 µM,"MDA-MB-435; MDA-MB-435, Melanoma, NCI one dose",0%
same,inhibition at 10 µM,"SK-MEL-5; SK-MEL-5, Melanoma, NCI one dose",0.99%
same,inhibition at 10 µM,"SR; SR, Leukemia, NCI one dose",15.2%
same,inhibition at 10 µM,"MDA-MB-231/ATCC; MDA-MB-231/ATCC, Breast cancer, NCI one dose",2.18%
same,inhibition at 10 µM,"SN12C; SN 12C, Renal cancer, NCI one dose",0%
same,inhibition at 10 µM,"HOP-62; HOP-62, Non-Small Cell Lung Cancer, NCI one dose",0%
same,inhibition at 10 µM,"NCI/ADR-RES; NCI/ADR-RES, Ovarian Cancer, NCI one dose",0%
"O=C(CSc1nnc(-c2ccc3[nH]c(-c4ccc(Cl)cc4)nc3c2)o1)Nc1ccc(C(=O)/C=C/c2ccccc2)cc1 [Compound 7f, 2-{5-[2-(4-Chlorophenyl)-1 H-benzo[d]imidazol-5-yl]-1,3,4-oxadiazol-2-ylthio}-N-{4-[(E)-3-phenylacryloyl]phenyl}acetamide]",inhibition at 10 µM,"UO-31; UO-31 (Renal Cancer), NCI one dose 10 µM",12.2%
same,inhibition at 10 µM,"CAKI-1; CAKI-1 (Renal Cancer), NCI one dose 10 µM",1.83%
same,inhibition at 10 µM,"RPMI-8226; RPMI-8226 (Leukemia), NCI one dose 10 µM",23.2%
same,inhibition at 10 µM,"NCI-H460; NCI-H460 (Non-Small Cell Lung Cancer), NCI one dose 10 µM",0%
same,inhibition at 10 µM,"BT-549; BT-549 (Breast Cancer), NCI one dose 10 µM",0%
same,inhibition at 10 µM,"SNB-19; SNB-19 (CNS Cancer), NCI one dose 10 µM",0%
same,inhibition at 10 µM,"HOP-92; HOP-92 (Non-Small Cell Lung Cancer), NCI one dose 10 µM",0%
same,inhibition at 10 µM,"SK-MEL-28; SK-MEL-28 (Melanoma), NCI one dose 10 µM",0%
same,inhibition at 10 µM,"COLO 205; COLO 205 (Colon Cancer), NCI one dose 10 µM",0%
same,inhibition at 10 µM,"MALME-3M; MALME-3M (Melanoma), NCI one dose 10 µM",3.93%
same,inhibition at 10 µM,"SK-MEL-2; SK-MEL-2 (Melanoma), NCI one dose 10 µM",0%
same,inhibition at 10 µM,"M14; M14 (Melanoma), NCI one dose 10 µM",0%
same,inhibition at 10 µM,"SF-295; SF-295 (CNS Cancer), NCI one dose 10 µM",0%
same,inhibition at 10 µM,"SNB-75; SNB-75 (CNS Cancer), NCI one dose 10 µM",1.75%
same,inhibition at 10 µM,"MDA-MB-435; MDA-MB-435 (Melanoma), NCI one dose 10 µM",0%
same,inhibition at 10 µM,"SK-MEL-5; SK-MEL-5 (Melanoma), NCI one dose 10 µM",0.99%
same,inhibition at 10 µM,"SR; SR (Leukemia), NCI one dose 10 µM",15.2%
same,inhibition at 10 µM,"MDA-MB-231/ATCC; MDA-MB-231/ATCC (Breast Cancer), NCI one dose 10 µM",2.18%
same,inhibition at 10 µM,"SN12C; SN 12C (Renal Cancer), NCI one dose 10 µM",0%
same,inhibition at 10 µM,"HOP-62; HOP-62 (Non-Small Cell Lung Cancer), NCI one dose 10 µM",0%
same,inhibition at 10 µM,"NCI/ADR-RES; NCI/ADR-RES (Ovarian Cancer), NCI one dose 10 µM",0%
